In one data set the target is T1, DERAEC (Escherichia coli, UniProt P0A6L0).
T1 construct: gene deoC; deoC isolated previously; E. coli BL21(DE3); NiNTA purification; dimer
T1 sequence (P0A6L0 1-259): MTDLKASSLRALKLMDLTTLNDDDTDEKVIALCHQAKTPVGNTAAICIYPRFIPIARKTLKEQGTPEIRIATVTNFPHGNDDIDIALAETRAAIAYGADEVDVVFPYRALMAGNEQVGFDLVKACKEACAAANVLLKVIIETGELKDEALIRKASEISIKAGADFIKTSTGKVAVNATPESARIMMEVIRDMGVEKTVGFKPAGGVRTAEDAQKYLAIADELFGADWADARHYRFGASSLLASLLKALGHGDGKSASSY
In words: steady-state kinetics, coupled GDH/TPI assay, NADH at […] nm. The note with it: retro-aldol cleavage; 25 °C. In kind it is biochemical.

The target of the next data set is T2, DERASH (Shewanella halifaxensis, UniProt B0TQ91).
T2 construct: gene deoC; deoC isolated from genomic DNA; E. coli BL21(DE3); NiNTA purification; dimer
T2 sequence (B0TQ91 whole entry): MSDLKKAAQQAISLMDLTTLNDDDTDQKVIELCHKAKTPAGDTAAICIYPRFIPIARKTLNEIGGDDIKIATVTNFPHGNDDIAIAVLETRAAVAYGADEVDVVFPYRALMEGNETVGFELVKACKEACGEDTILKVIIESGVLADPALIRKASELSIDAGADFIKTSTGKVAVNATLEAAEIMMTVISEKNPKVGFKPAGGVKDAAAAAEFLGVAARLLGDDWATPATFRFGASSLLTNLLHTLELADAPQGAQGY
The description is as above. The class given is biochemical. To be noted: retro-aldol cleavage; 25 °C.

The target of a further data set is T3, DERAPA (Pyrobaculum aerophilum, UniProt Q8ZXK7).
T3 construct: gene deoC; synthetic deoC gene in pET21a, C-terminal 6xHis tag; E. coli BL21(DE3); NiNTA; dimer
T3 sequence (Q8ZXK7 1-226): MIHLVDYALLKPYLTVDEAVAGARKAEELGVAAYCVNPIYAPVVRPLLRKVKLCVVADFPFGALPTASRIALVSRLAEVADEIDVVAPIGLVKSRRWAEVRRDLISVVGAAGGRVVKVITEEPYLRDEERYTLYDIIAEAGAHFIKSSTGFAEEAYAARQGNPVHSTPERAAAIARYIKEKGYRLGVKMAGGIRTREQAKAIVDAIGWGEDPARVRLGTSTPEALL
Described as above. The class given is biochemical. To be noted: retro-aldol cleavage; 25 °C.

A further data set has as its target T4, DERATM (Thermotoga maritima, UniProt Q9X1P5).
T4 construct: gene deoC; synthetic deoC gene in pET21a, C-terminal 6xHis tag; E. coli BL21(DE3); NiNTA; dimer
T4 sequence (Q9X1P5 1-248): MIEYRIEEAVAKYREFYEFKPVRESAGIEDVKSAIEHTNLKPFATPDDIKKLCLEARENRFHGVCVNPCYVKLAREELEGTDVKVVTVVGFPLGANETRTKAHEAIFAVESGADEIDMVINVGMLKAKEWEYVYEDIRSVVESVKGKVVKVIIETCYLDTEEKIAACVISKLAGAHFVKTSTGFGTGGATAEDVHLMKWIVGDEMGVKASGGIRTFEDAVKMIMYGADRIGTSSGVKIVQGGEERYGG
Described as above. In kind it is biochemical. The note with it: retro-aldol cleavage; 25 °C.

A further data set addresses T5, DERACP (Colwellia psychrerythraea, UniProt Q483R4).
T5 construct: gene deoC; synthetic deoC gene in pET21a, C-terminal 6xHis tag; E. coli BL21(DE3); NiNTA; dimer
T5 sequence (Q483R4 1-257): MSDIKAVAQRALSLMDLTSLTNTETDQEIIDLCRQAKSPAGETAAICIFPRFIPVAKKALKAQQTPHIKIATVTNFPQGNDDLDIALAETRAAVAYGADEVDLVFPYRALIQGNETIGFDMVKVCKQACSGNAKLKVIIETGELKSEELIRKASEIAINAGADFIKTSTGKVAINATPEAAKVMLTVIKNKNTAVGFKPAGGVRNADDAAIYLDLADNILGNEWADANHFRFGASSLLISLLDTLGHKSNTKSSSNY
The data set is described as above. The class given is biochemical. The note with it: retro-aldol cleavage; 25 °C.

Data set [1] deals with the molecule itself. The experiment in a line: cross-linking; engineered intermolecular disulfide (A95C) across the dimer interface; oxidised against reduced mutant on SDS-PAGE under non-reducing conditions.
Data set [2] concerns the molecule itself. In words: crystal structure; sitting-drop vapour diffusion at 20 °C; data at 100 K; DERACP tetragonal (P4(1)2(1)2, two chains per asymmetric unit) and hexagonal (P6(1)22, four chains) forms, DERASH (C2, four chains).
Data set [3] deals with the molecule itself. The experiment in a line: SEC; Superdex 200 10/300 GL, 100 mM KPi, 150 mM NaCl (pH 7); 1-5 mg protein loaded; calibrated with five protein standards between 12.5 and 200 kDa; hydrodynamic size. For orientation: Size exclusion chromatography separates by hydrodynamic size, large species first.

With `O=P(O)(O)OC[C@H]1OC(O)C[C@@H]1O` (stereo partly drawn) [2-deoxy-D-ribose-5-phosphate], the KM entry was “Both KM and kcat values decrease with increasing optimal growth temperature of the organism” at DERAEC; “Both KM and kcat values decrease with increasing optimal growth temperature of the organism” on DERASH; “Both KM and kcat values decrease with increasing optimal growth temperature of the organism” on DERAPA; “Both KM and kcat values decrease with increasing optimal growth temperature of the organism” on DERATM; “Both KM and kcat values decrease with increasing optimal growth temperature of the organism” at DERACP.

B1: A95C mutant of DERA from Escherichia coli (enzyme)
chain: MTDLKASSLRALKLMDLTTLNDDDTDEKVIALCHQAKTPVGNTAAICIYPRFIPIARKTLKEQGTPEIRIATVTNFPHGNDDIDIALAETRAAICYGADEVDVVFPYRALMAGNEQVGFDLVKACKEACAAANVLLKVIIETGELKDEALIRKASEISIKAGADFIKTSTGKVAVNATPESARIMMEVIRDMGVEKTVGFKPAGGVRTAEDAQKYLAIADELFGADWADARHYRFGASSLLASLLKALGHGDGKSASSY
modifications: intermolecular disulfide bridge C95-C95 in the oxidised form
notes: DERA (deoC gene) of Escherichia coli with the mutation A95C; also called DERAEC A95C; source: E. coli BL21(DE3), purified (Ni-NTA)
Regarding B1, in data set [1], the binding result is reported as “binds”.

B2: 2-deoxy-D-ribose-5-phosphate aldolase (DERA) from Colwellia psychrerythraea, wild type (enzyme, UniProt Q483R4 1-257, looked up)
chain: MSDIKAVAQRALSLMDLTSLTNTETDQEIIDLCRQAKSPAGETAAICIFPRFIPVAKKALKAQQTPHIKIATVTNFPQGNDDLDIALAETRAAVAYGADEVDLVFPYRALIQGNETIGFDMVKVCKQACSGNAKLKVIIETGELKSEELIRKASEIAINAGADFIKTSTGKVAINATPEAAKVMLTVIKNKNTAVGFKPAGGVRNADDAAIYLDLADNILGNEWADANHFRFGASSLLISLLDTLGHKSNTKSSSNY
notes: 2-deoxy-D-ribose-5-phosphate aldolase (DERA, deoC gene) of Colwellia psychrerythraea; gene synthesised by GenScript, in pET21a; also called DERACP; psychrophilic DERA; source: E. coli BL21(DE3), purified (Ni-NTA, SEC)
One may read the stoichiometry N as a count of units in the complex or per binding partner. As to B2, the “stoichiometry N” value in data set [2] was determined as 2.

B3: 2-deoxy-D-ribose-5-phosphate aldolase (DERA) from Pyrobaculum aerophilum, wild type (enzyme)
chain: MIHLVDYALLKPYLTVDEAVAGARKAEELGVAAYCVNPIYAPVVRPLLRKVKLCVVADFPFGALPTASRIALVSRLAEVADEIDVVAPIGLVKSRRWAEVRRDLISVVGAAGGRVVKVITEEPYLRDEERYTLYDIIAEAGAHFIKSSTGFAEEAYAARQGNPVHSTPERAAAIARYIKEKGYRLGVKMAGGIRTREQAKAIVDAIGWGEDPARVRLGTSTPEALL
notes: 2-deoxy-D-ribose-5-phosphate aldolase (DERA, deoC gene) of Pyrobaculum aerophilum; gene synthesised by GenScript, in pET21a; also called DERAPA; hyperthermophilic DERA; source: E. coli BL21(DE3), purified (Ni-NTA)
For the molecule B3, the “stoichiometry N” value in data set [3] was 2.

B4: 2-deoxy-D-ribose-5-phosphate aldolase (DERA) from Thermotoga maritima, wild type (enzyme)
chain: MIEYRIEEAVAKYREFYEFKPVRESAGIEDVKSAIEHTNLKPFATPDDIKKLCLEARENRFHGVCVNPCYVKLAREELEGTDVKVVTVVGFPLGANETRTKAHEAIFAVESGADEIDMVINVGMLKAKEWEYVYEDIRSVVESVKGKVVKVIIETCYLDTEEKIAACVISKLAGAHFVKTSTGFGTGGATAEDVHLMKWIVGDEMGVKASGGIRTFEDAVKMIMYGADRIGTSSGVKIVQGGEERYGG
notes: 2-deoxy-D-ribose-5-phosphate aldolase (DERA, deoC gene) of Thermotoga maritima; gene synthesised by GenScript, in pET21a; also called DERATM; hyperthermophilic DERA; source: E. coli BL21(DE3), purified (Ni-NTA)
Consider B4, for which the “stoichiometry N” value in data set [3] was 2.
